Activity, Ki and Ratio Ki data for 19 compounds are collected here from ChEMBL document CHEMBL2157964, “Effect of alkyl chain length on sphingosine kinase 2 selectivity” (Bioorg Med Chem Lett, 2012).

The term Ki denotes a measure of affinity in units of concentration, obtained from inhibition or displacement.

For one assay, the target named is T1, Sphingosine kinase 1 (Homo sapiens, UniProt Q9NYA1). In words: Inhibition of recombinant SphK1 expressed in baculovirus infected Sf9 cells using D-erythro-sphingosine as substrate and [32gammaP]ATP assessed as residual activity at 10 uM by scintillation counting.
T1 sequence (Q9NYA1 whole entry): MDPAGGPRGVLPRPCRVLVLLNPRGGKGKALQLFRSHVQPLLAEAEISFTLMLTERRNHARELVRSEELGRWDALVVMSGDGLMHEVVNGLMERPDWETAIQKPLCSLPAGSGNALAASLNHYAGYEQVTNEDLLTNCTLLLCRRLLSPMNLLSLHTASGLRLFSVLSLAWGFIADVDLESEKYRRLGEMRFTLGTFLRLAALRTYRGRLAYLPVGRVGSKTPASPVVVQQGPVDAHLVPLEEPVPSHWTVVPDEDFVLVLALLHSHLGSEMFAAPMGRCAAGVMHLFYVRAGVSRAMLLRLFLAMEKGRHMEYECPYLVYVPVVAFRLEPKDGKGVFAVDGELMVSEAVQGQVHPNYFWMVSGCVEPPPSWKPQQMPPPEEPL
For `CCCCCCCCC#Cc1ccc([C@H]2CC[C@H]([N+](C)(C)CCC)CC2)cc1`, the Activity worked out at 61%.

On to `CCCCCCc1ccc([C@H]2CC[C@H]([N+](C)(C)CCC)CC2)cc1`, for which the Activity was 98%.

`CCCCCCCCCC#Cc1ccc([C@H]2CC[C@H]([N+](C)(C)CCC)CC2)cc1`: the Activity was 62%.

On to `CCCCCCCCCC(=O)c1ccc([C@H]2CC[C@H]([N+](C)(C)CCC)CC2)cc1`, for which the Activity was 93%.

As for `CCCCCCCCCCCCCCCC(=O)c1ccc([C@H]2CC[C@H]([N+](C)(C)CCC)CC2)cc1`, the Activity was 77%.

`CCCCCCCCCCCCc1ccc([C@H]2CC[C@H]([N+](C)(C)CCC)CC2)cc1`: the Activity is 63%.

As to `CCCCCCCCCCCCCCCCc1ccc([C@H]2CC[C@H]([N+](C)(C)CCC)CC2)cc1`, the Activity is 94%.

Take `CCCCCCCCCCCCCCc1ccc([C@H]2CC[C@H]([N+](C)(C)CCC)CC2)cc1`: the Activity was found to be 76%.

For the compound `CCCCCCCCCCCC(=O)c1ccc([C@H]2CC[C@H]([N+](C)(C)CCC)CC2)cc1`, the Activity worked out at 88%.

For the compound `CCCCCCCCCCC(=O)c1ccc([C@H]2CC[C@H]([N+](C)(C)CCC)CC2)cc1`, the Activity was determined as 79%.

`CCCCCCCCCCCCCC(=O)c1ccc([C@H]2CC[C@H]([N+](C)(C)CCC)CC2)cc1`: the Activity is 73%.

`CCCCCCCCCCc1ccc([C@H]2CC[C@H]([N+](C)(C)CCC)CC2)cc1`: the Activity came out at 67%.

On to `CCCCCCCC#Cc1ccc([C@H]2CC[C@H]([N+](C)(C)CCC)CC2)cc1`, for which the Activity was 87%.

Consider `CCCCCCCCc1ccc([C@H]2CC[C@H]([N+](C)(C)CCC)CC2)cc1`, for which the Activity was 100%.

For `CCCCCCCCCCCc1ccc([C@H]2CC[C@H]([N+](C)(C)CCC)CC2)cc1`, the Activity is 44%.

As for `CCCCCC(=O)c1ccc([C@H]2CC[C@H]([N+](C)(C)CCC)CC2)cc1`, the Activity amounted to 89%.

In the case of `CCCCCCCOc1ccc([C@H]2CC[C@H]([N+](C)(C)CCC)CC2)cc1`, the Activity stood at 100%.

In another assay the target is T2, Sphingosine kinase 2 (Homo sapiens) (UniProt Q9NRA0).
T2 sequence (whole entry): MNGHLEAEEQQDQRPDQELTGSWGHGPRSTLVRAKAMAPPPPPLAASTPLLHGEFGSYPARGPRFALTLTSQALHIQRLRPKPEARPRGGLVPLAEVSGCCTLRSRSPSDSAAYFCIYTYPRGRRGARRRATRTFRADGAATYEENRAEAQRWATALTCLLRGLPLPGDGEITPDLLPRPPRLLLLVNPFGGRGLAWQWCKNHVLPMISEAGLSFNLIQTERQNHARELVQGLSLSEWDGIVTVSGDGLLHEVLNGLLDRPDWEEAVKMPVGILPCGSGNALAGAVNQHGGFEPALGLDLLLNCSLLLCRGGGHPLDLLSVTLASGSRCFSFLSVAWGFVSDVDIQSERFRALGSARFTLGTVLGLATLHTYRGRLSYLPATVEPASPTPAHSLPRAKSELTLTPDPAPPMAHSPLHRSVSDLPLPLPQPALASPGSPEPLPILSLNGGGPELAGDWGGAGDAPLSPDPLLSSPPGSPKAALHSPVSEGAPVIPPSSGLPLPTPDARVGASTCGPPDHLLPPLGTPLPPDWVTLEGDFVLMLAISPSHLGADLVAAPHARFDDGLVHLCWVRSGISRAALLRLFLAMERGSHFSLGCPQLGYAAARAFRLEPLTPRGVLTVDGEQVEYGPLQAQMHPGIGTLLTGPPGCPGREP
In words: Inhibition of recombinant SphK2 expressed in baculovirus infected Sf9 cells using D-erythro-sphingosine as substrate and [32gammaP]ATP assessed as residual activity at 10 uM by scintillation counting.
With `CCCCCCCCC#Cc1ccc([C@H]2CC[C@H]([N+](C)(C)CCC)CC2)cc1`, the Activity was determined as 78%.

As to `CCCCCCc1ccc([C@H]2CC[C@H]([N+](C)(C)CCC)CC2)cc1`, the Activity turned out to be 98%.

Turning to `CCCCCCCCCC#Cc1ccc([C@H]2CC[C@H]([N+](C)(C)CCC)CC2)cc1`, the Activity worked out at 28%.

Regarding `CCCCCCCCCC(=O)c1ccc([C@H]2CC[C@H]([N+](C)(C)CCC)CC2)cc1`, the Activity was determined as 75%.

On to `CCCCCCCCCCCCCCCC(=O)c1ccc([C@H]2CC[C@H]([N+](C)(C)CCC)CC2)cc1`, for which the Activity was found to be 58%.

Regarding `CCCCCCCCCCCCc1ccc([C@H]2CC[C@H]([N+](C)(C)CCC)CC2)cc1`, the Activity was found to be 26%.

For the compound `CCCCCCCCCCCCCCCCc1ccc([C@H]2CC[C@H]([N+](C)(C)CCC)CC2)cc1`, the Activity was found to be 70%.

`CCCCCCCCCCCCCCc1ccc([C@H]2CC[C@H]([N+](C)(C)CCC)CC2)cc1`: the Activity was 38%.

For `CCCCCCCCCCCC(=O)c1ccc([C@H]2CC[C@H]([N+](C)(C)CCC)CC2)cc1`, the Activity turned out to be 41%.

Turning to `CCCCCCCCCCC(=O)c1ccc([C@H]2CC[C@H]([N+](C)(C)CCC)CC2)cc1`, the Activity worked out at 40%.

Regarding `CCCCCCCCCCCCCC(=O)c1ccc([C@H]2CC[C@H]([N+](C)(C)CCC)CC2)cc1`, the Activity is 50%.

`CCCCCCCCCCc1ccc([C@H]2CC[C@H]([N+](C)(C)CCC)CC2)cc1`: the Activity was 26%.

As to `CCCCCCCC#Cc1ccc([C@H]2CC[C@H]([N+](C)(C)CCC)CC2)cc1`, the Activity came to 100%.

For the compound `CCCCCCCCc1ccc([C@H]2CC[C@H]([N+](C)(C)CCC)CC2)cc1`, the Activity was determined as 64%.

`CCCCCCCCCCCc1ccc([C@H]2CC[C@H]([N+](C)(C)CCC)CC2)cc1`: the Activity turned out to be 50%.

As for `CCCCCC(=O)c1ccc([C@H]2CC[C@H]([N+](C)(C)CCC)CC2)cc1`, the Activity came to 71%.

With `CCCCCCCOc1ccc([C@H]2CC[C@H]([N+](C)(C)CCC)CC2)cc1`, the Activity worked out at 70%.

In a further assay the target is T1, Sphingosine kinase 1. In words: Inhibition of recombinant SphK1 expressed in baculovirus infected Sf9 cells using D-erythro-sphingosine as substrate and [32gammaP]ATP by scintillation counting.
With `CCCCCCc1ccc([C@H]2CC[C@H]([N+](C)(C)CCC)CC2)cc1`, the Ki came to 35 µM.

In the case of `CCCCCCCCCCCCc1ccc([C@H]2CC[C@H]([N+](C)(C)CCC)CC2)cc1`, the inhibition constant Ki came out at 13 µM.

As to `CCCCCCCCCCCCCCCCc1ccc([C@H]2CC[C@H]([N+](C)(C)CCC)CC2)cc1`, the Ki is 27 µM.

As for `CCCCCCCCCCCCCCc1ccc([C@H]2CC[C@H]([N+](C)(C)CCC)CC2)cc1`, the Ki came out at 36 µM.

`CCCCCCCCCCc1ccc([C@H]2CC[C@H]([N+](C)(C)CCC)CC2)cc1`: the inhibition constant Ki is 35 µM.

As to `CCCCCCCCc1ccc([C@H]2CC[C@H]([N+](C)(C)CCC)CC2)cc1`, the Ki stood at 22 µM.

Take `CCCCCCCCCCCc1ccc([C@H]2CC[C@H]([N+](C)(C)CCC)CC2)cc1`: the Ki is 15 µM.

In another assay the target is T3, Sphingosine kinase 2 (Homo sapiens, UniProt Q9NRA0).
T3 sequence (Q9NRA0 whole entry): T2 sequence (whole entry)
In words: Inhibition of recombinant SphK2 expressed in baculovirus infected Sf9 cells using D-erythro-sphingosine as substrate and [32gammaP]ATP by scintillation counting.
Turning to `CCCCCCc1ccc([C@H]2CC[C@H]([N+](C)(C)CCC)CC2)cc1`, the inhibition constant Ki is 43 µM.

As for `CCCCCCCCCCCCc1ccc([C@H]2CC[C@H]([N+](C)(C)CCC)CC2)cc1`, the Ki worked out at 8 µM.

Consider `CCCCCCCCCCCCCCCCc1ccc([C@H]2CC[C@H]([N+](C)(C)CCC)CC2)cc1`, for which the Ki came out at 29 µM.

Regarding `CCCCCCCCCCCCCCc1ccc([C@H]2CC[C@H]([N+](C)(C)CCC)CC2)cc1`, the Ki turned out to be 7 µM.

As to `CCCCCCCCCCc1ccc([C@H]2CC[C@H]([N+](C)(C)CCC)CC2)cc1`, the inhibition constant (Ki) is 43 µM.

As to `CCCCCCCCc1ccc([C@H]2CC[C@H]([N+](C)(C)CCC)CC2)cc1`, the inhibition constant Ki is 21 µM.

As to `CCCCCCCCCCCc1ccc([C@H]2CC[C@H]([N+](C)(C)CCC)CC2)cc1`, the Ki worked out at 11 µM.

In another assay the target is T3, Sphingosine kinase 2. As to the kind of experiment: Inhibition of human recombinant SphK2 using NBD-sphingosine as substrate after 2 hrs by HPLC analysis.
Consider `O=C(NCc1ccncc1)C12CC3CC(C1)CC(c1ccc(Cl)cc1)(C3)C2` [ABC-294640], for which the Ki amounted to 9.8 µM.

The next assay deals with T3, Sphingosine kinase 2. As to the kind of experiment: Inhibition of SphK2 using sphingosine as substrate and [32gammaP]ATP after 15 to 20 mins by Cerenkov counting analysis.
In turn, `CCCCCCCCc1ccc(CC[C@@](N)(CO)COC)cc1` came in with a Ki of 16.5 µM.

System in the next assay: not listed separately
In words: Selectivity ratio of Ki for recombinant SphK1 to Ki for recombinant SphK2.
As to `CCCCCCCCCCCCCCc1ccc([C@H]2CC[C@H]([N+](C)(C)CCC)CC2)cc1`, the Ratio Ki stood at 3.
